# ChEMBL document CHEMBL1124314, “Development of phosphonate derivatives of gadolinium chelates for NMR imaging of calcified soft tissues” (J Med Chem, 1989)
# Tests used:
# [1] = species: Rattus norvegicus; experiment: Uptake of [GD] in bone 1 hr post injection with 0.005 of the compound; format: functional, Bone element
# [2] = species: Rattus norvegicus; experiment: Uptake of [GD] in bone 1 hr post injection with 0.02 of the compound; format: functional, Bone element
# [3] = species: Rattus norvegicus; experiment: Uptake of [GD] in bone 1 hr post injection with 0.05 of the compound; format: functional, Bone element
# [4] = species: Rattus norvegicus; experiment: Uptake of [GD] in bone 1 hr post injection with 0.10 of the compound; format: functional, Bone element
# [5] = species: Rattus norvegicus; experiment: Uptake of [GD] in bone 1 hr post injection with NCA GD dose; format: functional, Bone element
# [6] = Uptake of [GD] in bone 1 hr post injection with NCA GD dose to that of muscle; format: functional, Muscle tissue
# [7] = Ratio of uptake of [GD] in bone 1 hr post injection with 0.005 to that of blood; format: functional
# [8] = Ratio of uptake of [GD] in bone 1 hr post injection with 0.005 to that of muscle; format: functional
# [9] = Ratio of uptake of [GD] in bone 1 hr post injection with 0.02 to that of blood; format: functional
# [10] = Ratio of uptake of [GD] in bone 1 hr post injection with 0.02 to that of muscle; format: functional
# [11] = Ratio of uptake of [GD] in bone 1 hr post injection with 0.05 to that of blood; format: functional
# [12] = Ratio of uptake of [GD] in bone 1 hr post injection with 0.05 to that of muscle; format: functional
# [13] = Ratio of uptake of [GD] in bone 1 hr post injection with 0.10 to that of blood; format: functional
# [14] = Ratio of uptake of [GD] in bone 1 hr post injection with 0.10 to that of muscle; format: functional
# [15] = Ratio of uptake of [GD] in bone 1 hr post injection with 0.20 to that of blood; format: functional
# [16] = Ratio of uptake of [GD] in bone 1 hr post injection with 0.20 to that of muscle; format: functional
# [17] = Ratio of uptake of [GD] in bone 1 hr post injection with NCA GD dose to that of blood; format: functional
# [18] = species: Rattus norvegicus; experiment: Uptake of [GD] in bone 1 hr post injection with 0.20 of the compound; format: functional, Bone element
# [19] = species: Rattus norvegicus; experiment: Biodistribution in normal rat heart in the presence of 0.005 M Gd/0.01 M lig at 2 hr; format: ADME, organism-based; conditions: in vivo
# [20] = species: Rattus norvegicus; experiment: Biodistribution in normal rat heart in the presence of 0.01 M Gd/0.05 M lig; format: ADME, organism-based; conditions: in vivo
# [21] = species: Rattus norvegicus; experiment: Biodistribution in normal rat heart in the presence of NAC Gd 0.01 M lig at 2 hr; format: ADME, organism-based; conditions: in vivo
# [22] = species: Rattus norvegicus; experiment: Biodistribution in normal rat kidney in the presence of 0.005 M Gd/0.01 M lig at 2 hr; format: ADME, organism-based; conditions: in vivo
# [23] = species: Rattus norvegicus; experiment: Biodistribution in normal rat kidney in the presence of 0.01 M Gd/0.05 M lig; format: ADME, organism-based; conditions: in vivo
# [24] = species: Rattus norvegicus; experiment: Biodistribution in normal rat kidney in the presence of NAC Gd 0.01 M lig at 2 hr; format: ADME, organism-based; conditions: in vivo
# [25] = species: Rattus norvegicus; experiment: Biodistribution in normal rat liver in the presence of 0.005 M Gd/0.01 M lig at 2 hr; format: ADME, organism-based; conditions: in vivo
# [26] = species: Rattus norvegicus; experiment: Biodistribution in normal rat liver in the presence of 0.01 M Gd/0.05 M lig; format: ADME, organism-based; conditions: in vivo
# [27] = species: Rattus norvegicus; experiment: Biodistribution in normal rat lung in the presence of 0.005 M Gd/0.01 M lig at 2 hr; format: ADME, organism-based; conditions: in vivo
# [28] = species: Rattus norvegicus; experiment: Biodistribution in normal rat lung in the presence of 0.01 M Gd/0.05 M lig; format: ADME, organism-based; conditions: in vivo
# [29] = species: Rattus norvegicus; experiment: Biodistribution in normal rat lung in the presence of NAC Gd 0.01 M lig at 2 hr; format: ADME, organism-based; conditions: in vivo
# [30] = species: Rattus norvegicus; experiment: Biodistribution in normal rat blood in the presence of 0.005 M Gd/0.01 M lig at 2 hr; format: ADME, organism-based; conditions: in vivo
# [31] = species: Rattus norvegicus; experiment: Biodistribution in normal rat blood in the presence of 0.01 M Gd/0.05 M lig; format: ADME, organism-based; conditions: in vivo
# [32] = species: Rattus norvegicus; experiment: Biodistribution in normal rat blood in the presence of NAC Gd 0.01 M lig at 2 hr; format: ADME, organism-based; conditions: in vivo
# [33] = species: Rattus norvegicus; experiment: Biodistribution in normal rat bone in the presence of 0.005 M Gd/0.01 M lig at 2 hr; format: ADME, organism-based, Bone element; conditions: in vivo
# [34] = species: Rattus norvegicus; experiment: Biodistribution in normal rat bone in the presence of 0.01 M Gd/0.05 M lig; format: ADME, organism-based, Bone element; conditions: in vivo
# [35] = species: Rattus norvegicus; experiment: Biodistribution in normal rat bone in the presence of NAC Gd 0.01 M lig at 2 hr; format: ADME, organism-based, Bone element; conditions: in vivo
# [36] = species: Rattus norvegicus; experiment: Biodistribution in normal rat muscle in the presence of 0.005 M Gd/0.01 M lig at 2 hr; format: ADME, organism-based, Muscle tissue; conditions: in vivo
# [37] = species: Rattus norvegicus; experiment: Biodistribution in normal rat muscle in the presence of 0.01 M Gd/0.05 M lig; format: ADME, organism-based, Muscle tissue; conditions: in vivo
# [38] = species: Rattus norvegicus; experiment: Biodistribution in normal rat muscle in the presence of NAC Gd 0.01 M lig at 2 hr; format: ADME, organism-based, Muscle tissue; conditions: in vivo
# [39] = species: Rattus norvegicus; experiment: Biodistribution in normal rat spleen in the presence of 0.005 M Gd/0.01 M lig at 2 hr; format: ADME, organism-based; conditions: in vivo
# [40] = species: Rattus norvegicus; experiment: Biodistribution in normal rat spleen in the presence of 0.01 M Gd/0.05 M lig; format: ADME, organism-based; conditions: in vivo
# [41] = species: Rattus norvegicus; experiment: Biodistribution in normal rat spleen in the presence of NAC Gd 0.01 M lig at 2 hr; format: ADME, organism-based; conditions: in vivo
# [42] = species: Rattus norvegicus; experiment: Uptake of [GD] in bone 1 hr post injection with 0.002 of the compound; format: functional, Bone element
# [43] = species: Rattus norvegicus; experiment: Uptake of [GD] in bone 1 h post injection with 0.01 of the compound; format: functional, Bone element
# [44] = species: Rattus norvegicus; experiment: Uptake of [GD] in bone 1 hr post injection with 0.025 of the compound; format: functional, Bone element
# [45] = Ratio of uptake of [GD] in bone 1 hr post injection with 0.002 to that of blood; format: functional
# [46] = Ratio of uptake of [GD] in bone 1 hr post injection with 0.002 to that of muscle; format: functional
# [47] = Ratio of uptake of [GD] in bone 1 hr post injection with 0.01 to that of blood; format: functional
# [48] = Ratio of uptake of [GD] in bone 1 hr post injection with 0.01 to that of muscle; format: functional
# [49] = Ratio of uptake of [GD] in bone 1 hr post injection with 0.025 to that of blood; format: functional
# [50] = Ratio of uptake of [GD] in bone 1 hr post injection with 0.025 to that of muscle; format: functional
# [51] = species: Rattus norvegicus; experiment: Biodistribution in normal rat liver in the presence of NAC Gd 0.01 M lig at 2 hr; format: ADME, organism-based; conditions: in vivo
# [52] = species: Rattus norvegicus; experiment: Biodistribution in rat bone in the presence of NCAGd/0.01 M lig; format: ADME, organism-based, Bone element; conditions: in vivo
# [53] = species: Rattus norvegicus; experiment: Biodistribution in rat heart in the presence of NCAGd/0.01 M lig; format: ADME, organism-based; conditions: in vivo
# [54] = species: Rattus norvegicus; experiment: Biodistribution in rat muscle in the presence of NCAGd/0.01 M lig; format: ADME, organism-based, Muscle tissue; conditions: in vivo
# [55] = species: Rattus norvegicus; experiment: Biodistribution in rat liver by in the presence of NCAGd/0.01 M lig; format: ADME, organism-based; conditions: in vivo
# [56] = species: Rattus norvegicus; experiment: Biodistribution in rat blood in the presence of NCAGd/0.01 M lig; format: ADME, organism-based; conditions: in vivo
# [57] = species: Rattus norvegicus; experiment: Biodistribution in rat spleen in the presence of NCAGd/0.01 M lig; format: ADME, organism-based; conditions: in vivo
# [58] = species: Rattus norvegicus; experiment: Biodistribution in rat kidney in the presence of NCAGd/0.01 M lig; format: ADME, organism-based; conditions: in vivo
# [59] = species: Rattus norvegicus; experiment: Uptake of [GD] in bone 1 hr post injection with 0.01 (N) of the compound
# [60] = Ratio of uptake of [GD] in bone 1 hr post injection with 0.01 (N) to that of blood
# [61] = Ratio of uptake of [GD] in bone 1 hr post injection with 0.01 (N) to that of muscle
structure (smiles),measurement,setting,value
O=C(O)CN(CCN(CC(=O)O)CC(=O)O)CCN(CC(=O)O)CC(=O)NCCC(O)P(=O)(O)OP(=O)(O)O (configuration not stated),ID,[1],44.4%
same,ID,[2],28.9%
same,ID,[3],21.2%
same,ID,[4],16.1%
same,ID,[5],57%
same,Ratio,[6],70.6
same,Ratio,[7],110.4
same,Ratio,[8],52.7
same,Ratio,[9],34.9
same,Ratio,[10],20.1
same,Ratio,[11],29.8
same,Ratio,[12],19.6
same,Ratio,[13],25.7
same,Ratio,[14],12.5
same,Ratio,[15],13.9
same,Ratio,[16],8.08
same,Ratio,[17],108
same,ID,[18],13.5%
O=P(O)(O)C(N(CCN(C(P(=O)(O)O)P(=O)(O)O)C(P(=O)(O)O)P(=O)(O)O)C(P(=O)(O)O)P(=O)(O)O)P(=O)(O)O,ID/organ,[19],0.04%
same,ID/organ,[20],0.13%
same,ID/organ,[21],0.004%
same,ID/organ,[22],0.4%
same,ID/organ,[23],0.38%
same,ID/organ,[24],0.29%
same,ID/organ,[25],1.6%
same,ID/organ,[26],0.5%
same,ID/organ,[27],0.1%
same,ID/organ,[28],0.09%
same,ID/organ,[29],0.02%
same,ID/organ,[30],1.7%
same,ID/organ,[31],0.7%
same,ID/organ,[32],0.045%
same,ID/organ,[33],42.9%
same,ID/organ,[34],35%
same,ID/organ,[35],47%
same,ID/organ,[36],2.4%
same,ID/organ,[37],2%
same,ID/organ,[38],0.3%
same,ID/organ,[39],0.02%
same,ID/organ,[40],0.009%
same,ID/organ,[41],0.004%
same,ID,[42],53.1%
same,ID,[43],50.1%
same,ID,[44],35.4%
same,ID,[5],54.8%
same,Ratio,[6],51.2
same,Ratio,[45],73.3
same,Ratio,[46],43.5
same,Ratio,[47],37.3
same,Ratio,[48],27.7
same,Ratio,[49],20.4
same,Ratio,[50],12.4
same,Ratio,[17],91.8
same,ID/organ,[51],0.22%
CC(CO)NCCNC(C)C(C)O (configuration not stated),ID/organ,[52],59.6%
same,ID/organ,[53],0.315%
same,ID/organ,[54],6.25%
same,ID/organ,[55],21.5%
same,ID/organ,[56],2.31%
same,ID,[43],6.88%
same,ID,[5],59.6%
same,Ratio,[48],1.22%
same,ID/organ,[57],0.13%
same,ID/organ,[58],2.75%
same,ID,[59],3.33%
same,Ratio,[60],0.18%
same,Ratio,[61],1.55%
